# Experimental data taken from ChEMBL document CHEMBL1201862, “PubChem BioAssay data set” (2004).
# Activity calls are given as the source filed them.
# Experiments:
# [1] = A cytotoxicity screen of small molecule inhibitors of the PhoP region in Salmonella typhi identified in the primary screen. [Related pubchem assays: 1850, 1864, 1985 ]; format: functional
# Aspartyl aminopeptidase = biological target: T1, Aspartyl aminopeptidase (Plasmodium falciparum 3D7, UniProt Q8I2J3)
# T1 sequence (Q8I2J3 whole entry): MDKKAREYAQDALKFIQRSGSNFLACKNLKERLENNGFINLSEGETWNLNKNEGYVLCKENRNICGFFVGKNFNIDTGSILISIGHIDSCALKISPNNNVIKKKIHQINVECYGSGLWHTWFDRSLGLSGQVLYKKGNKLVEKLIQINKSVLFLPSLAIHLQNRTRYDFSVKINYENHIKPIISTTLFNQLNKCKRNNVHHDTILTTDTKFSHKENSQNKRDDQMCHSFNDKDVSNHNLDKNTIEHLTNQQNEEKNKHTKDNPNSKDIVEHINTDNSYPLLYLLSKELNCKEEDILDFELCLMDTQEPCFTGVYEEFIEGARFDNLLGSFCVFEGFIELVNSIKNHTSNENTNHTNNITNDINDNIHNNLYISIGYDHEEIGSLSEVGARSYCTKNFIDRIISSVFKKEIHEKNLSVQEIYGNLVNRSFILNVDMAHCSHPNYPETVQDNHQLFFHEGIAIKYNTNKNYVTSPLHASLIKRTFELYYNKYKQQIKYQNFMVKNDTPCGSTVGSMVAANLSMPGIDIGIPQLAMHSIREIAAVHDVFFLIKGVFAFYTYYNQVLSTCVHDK
# Procathepsin L = Procathepsin L (Homo sapiens, UniProt P07711)
# Sequence of Procathepsin L (P07711 whole entry): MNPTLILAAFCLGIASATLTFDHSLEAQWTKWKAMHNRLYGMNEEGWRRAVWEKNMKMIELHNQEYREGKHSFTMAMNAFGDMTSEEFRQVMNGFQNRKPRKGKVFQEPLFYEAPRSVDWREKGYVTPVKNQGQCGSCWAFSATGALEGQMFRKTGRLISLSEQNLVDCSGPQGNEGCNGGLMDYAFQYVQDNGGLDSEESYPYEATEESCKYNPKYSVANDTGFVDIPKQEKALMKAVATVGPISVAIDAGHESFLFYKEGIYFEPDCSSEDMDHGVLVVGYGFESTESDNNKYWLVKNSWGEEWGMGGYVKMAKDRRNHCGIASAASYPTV
# [2] = biological target: T2, Acyl-homoserine lactone acylase PvdQ (Pseudomonas aeruginosa (strain LESB58), UniProt Q9I194); assay: P. aeruginosa PvdQ acylase inhibitors, dose response, biochemical, fluorescence, plate reader and imaging, cherry-picks (AID 493231)
# T2 sequence (Q9I194 whole entry): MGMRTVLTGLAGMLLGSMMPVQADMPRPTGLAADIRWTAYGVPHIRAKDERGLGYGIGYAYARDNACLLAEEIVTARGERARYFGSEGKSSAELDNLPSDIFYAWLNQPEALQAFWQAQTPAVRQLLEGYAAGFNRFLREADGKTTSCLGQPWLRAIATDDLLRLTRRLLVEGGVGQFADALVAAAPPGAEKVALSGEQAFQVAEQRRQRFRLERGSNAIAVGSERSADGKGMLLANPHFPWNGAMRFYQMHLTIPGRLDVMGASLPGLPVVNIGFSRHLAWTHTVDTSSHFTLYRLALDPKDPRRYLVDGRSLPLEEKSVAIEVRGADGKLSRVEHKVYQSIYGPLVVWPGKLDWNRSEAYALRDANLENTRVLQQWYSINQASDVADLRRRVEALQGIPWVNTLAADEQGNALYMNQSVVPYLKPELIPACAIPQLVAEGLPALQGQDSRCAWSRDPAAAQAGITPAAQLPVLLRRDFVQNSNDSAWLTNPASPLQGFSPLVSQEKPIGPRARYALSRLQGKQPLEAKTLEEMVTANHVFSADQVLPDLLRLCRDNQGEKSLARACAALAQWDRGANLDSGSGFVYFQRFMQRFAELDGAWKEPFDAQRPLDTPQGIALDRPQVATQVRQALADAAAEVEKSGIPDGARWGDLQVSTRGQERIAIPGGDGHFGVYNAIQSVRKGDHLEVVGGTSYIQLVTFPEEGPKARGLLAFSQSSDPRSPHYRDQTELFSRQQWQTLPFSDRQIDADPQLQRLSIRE
# Cytochrome P450 2C19 = Cytochrome P450 2C19 (Homo sapiens, UniProt P33261); assay: Cytochrome panel assay with activity outcomes. Panel member name: p450-cyp2c19 Compounds with AC50 equal or less than 10 uM are considered active; format: functional; details: read-out: AC50
# Sequence of Cytochrome P450 2C19 (P33261 whole entry): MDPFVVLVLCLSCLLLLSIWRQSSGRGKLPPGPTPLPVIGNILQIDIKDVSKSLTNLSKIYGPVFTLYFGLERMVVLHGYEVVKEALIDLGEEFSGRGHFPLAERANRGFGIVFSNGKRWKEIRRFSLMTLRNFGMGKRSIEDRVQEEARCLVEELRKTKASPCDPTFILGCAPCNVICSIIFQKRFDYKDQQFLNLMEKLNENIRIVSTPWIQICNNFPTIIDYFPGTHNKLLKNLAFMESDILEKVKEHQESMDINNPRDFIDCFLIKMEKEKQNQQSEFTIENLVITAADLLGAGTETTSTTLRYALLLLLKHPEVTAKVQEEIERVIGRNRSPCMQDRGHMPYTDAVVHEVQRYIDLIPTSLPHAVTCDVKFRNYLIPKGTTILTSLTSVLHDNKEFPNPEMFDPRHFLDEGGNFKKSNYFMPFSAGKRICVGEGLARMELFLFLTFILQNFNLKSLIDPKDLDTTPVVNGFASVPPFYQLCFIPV
# Cytochrome P450 2D6 = Cytochrome P450 2D6 (Homo sapiens, UniProt P10635);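 also: CYP2D6 member of a cytochrome P450 panel assay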
# Sequence of Cytochrome P450 2D6 (P10635 whole entry): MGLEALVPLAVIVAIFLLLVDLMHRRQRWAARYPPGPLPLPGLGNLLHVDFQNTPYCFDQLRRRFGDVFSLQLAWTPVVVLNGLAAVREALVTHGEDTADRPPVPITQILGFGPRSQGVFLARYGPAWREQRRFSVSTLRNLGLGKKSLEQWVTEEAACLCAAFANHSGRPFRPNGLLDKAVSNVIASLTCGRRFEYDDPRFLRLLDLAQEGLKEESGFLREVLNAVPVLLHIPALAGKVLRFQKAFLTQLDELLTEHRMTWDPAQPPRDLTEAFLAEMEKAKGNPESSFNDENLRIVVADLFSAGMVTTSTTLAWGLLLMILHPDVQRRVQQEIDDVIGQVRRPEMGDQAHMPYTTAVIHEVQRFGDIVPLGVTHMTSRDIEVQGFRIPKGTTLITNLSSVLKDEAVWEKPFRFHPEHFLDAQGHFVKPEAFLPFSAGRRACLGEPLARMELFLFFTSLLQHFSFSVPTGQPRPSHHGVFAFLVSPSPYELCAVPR
# [3] = inhibitors of firefly luciferase expression or activity, dose response, H4 neuroglioma cells, luminescence (AID 1990); format: functional, cell-based
# [4] = biological target: T3, RNA-binding protein pos-1 (Caenorhabditis elegans, UniProt G5EF15); assay: inhibitors of POS-1/mex-3 RNA binding, dose response, biochemical, fluorescence polarization (AID 1964);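 also: purified POS-1 fused to maltose binding protein made in E. coli; potency of compounds blocking POS-1 binding to fluorescent RNA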
# T3 sequence (G5EF15 whole entry): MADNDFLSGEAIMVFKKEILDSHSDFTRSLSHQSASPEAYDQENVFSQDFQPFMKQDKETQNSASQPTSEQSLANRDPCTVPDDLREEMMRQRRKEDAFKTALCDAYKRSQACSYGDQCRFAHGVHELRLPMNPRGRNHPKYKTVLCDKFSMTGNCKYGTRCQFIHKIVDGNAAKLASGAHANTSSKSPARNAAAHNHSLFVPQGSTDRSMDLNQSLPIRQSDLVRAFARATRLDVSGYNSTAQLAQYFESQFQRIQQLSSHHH
# [5] = biological target: Luciferin 4-monooxygenase (Photinus pyralis, UniProt P08659); assay: Counter Screen for Luciferase-based Assay Positives. [Related pubchem assays: 620, 618, 411 ]
# Sequence of Luciferin 4-monooxygenase (P08659 whole entry): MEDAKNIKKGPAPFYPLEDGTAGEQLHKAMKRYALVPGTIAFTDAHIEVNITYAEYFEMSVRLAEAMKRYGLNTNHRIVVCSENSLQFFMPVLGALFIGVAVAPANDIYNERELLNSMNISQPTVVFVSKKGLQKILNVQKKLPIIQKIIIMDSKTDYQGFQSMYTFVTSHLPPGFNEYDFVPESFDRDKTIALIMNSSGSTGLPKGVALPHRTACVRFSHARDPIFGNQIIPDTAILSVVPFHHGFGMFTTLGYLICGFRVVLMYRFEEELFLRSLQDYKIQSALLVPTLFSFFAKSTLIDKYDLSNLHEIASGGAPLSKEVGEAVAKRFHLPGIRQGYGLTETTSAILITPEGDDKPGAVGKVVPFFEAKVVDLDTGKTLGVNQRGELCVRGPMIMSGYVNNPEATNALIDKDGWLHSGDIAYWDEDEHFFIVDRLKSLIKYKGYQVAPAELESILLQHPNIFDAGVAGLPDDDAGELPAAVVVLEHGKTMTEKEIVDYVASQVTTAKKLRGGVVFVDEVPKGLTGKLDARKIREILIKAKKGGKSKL
# [6] = biological target: Glyceraldehyde-3-phosphate dehydrogenase (Homo sapiens, UniProt P04406)
# Sequence of Glyceraldehyde-3-phosphate dehydrogenase (P04406 whole entry): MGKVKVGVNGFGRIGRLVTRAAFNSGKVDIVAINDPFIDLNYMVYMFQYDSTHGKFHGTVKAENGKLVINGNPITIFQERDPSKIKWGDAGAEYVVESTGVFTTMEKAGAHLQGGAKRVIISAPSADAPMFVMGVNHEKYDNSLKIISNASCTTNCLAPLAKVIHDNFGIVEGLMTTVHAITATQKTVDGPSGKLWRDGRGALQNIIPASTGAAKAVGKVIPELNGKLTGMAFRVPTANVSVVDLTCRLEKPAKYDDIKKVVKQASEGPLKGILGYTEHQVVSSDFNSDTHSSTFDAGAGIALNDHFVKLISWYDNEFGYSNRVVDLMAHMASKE
# [7] = Luminescence Cell-Based Dose Response HTS to Identify Inhibitors of 5'UTR Stem-Loop Driven Prion Protein mRNA Translation in H4 Neuroglioblastoma Cells. [Related pubchem assays: 1827 (Project Summary), 1813 (Primary HTS)]; format: functional
# [8] = biological target: T4, Zinc finger protein mex-5 (Caenorhabditis elegans, UniProt Q9XUB2); assay: MEX-5/TCR-2 RNA interaction inhibitors, dose response, biochemical, C. elegans, fluorescence polarization (AID 1960)
# T4 sequence (Q9XUB2 whole entry): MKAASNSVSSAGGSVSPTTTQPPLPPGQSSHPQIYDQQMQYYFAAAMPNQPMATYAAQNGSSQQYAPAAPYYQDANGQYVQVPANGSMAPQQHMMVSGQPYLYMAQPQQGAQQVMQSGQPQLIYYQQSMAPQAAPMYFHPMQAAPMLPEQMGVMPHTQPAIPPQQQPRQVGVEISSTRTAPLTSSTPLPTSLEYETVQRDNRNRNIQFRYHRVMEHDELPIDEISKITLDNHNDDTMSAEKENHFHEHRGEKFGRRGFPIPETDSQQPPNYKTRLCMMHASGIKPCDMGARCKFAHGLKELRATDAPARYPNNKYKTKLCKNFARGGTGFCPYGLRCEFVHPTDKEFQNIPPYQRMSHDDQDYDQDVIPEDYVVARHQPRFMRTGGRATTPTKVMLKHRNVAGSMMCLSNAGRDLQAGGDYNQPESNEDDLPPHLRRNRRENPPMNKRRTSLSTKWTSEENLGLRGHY
# [9] = inhibitors of SNCA 5'UTR-driven reporter translation, confirmation, H4 neuroglioma cells, luminescence (AID 1988); format: functional, cell-based
# HT-1080 = assay: cytotoxicity in HT1080 fibrosarcoma cells, cell-based, fluorescence readout (AID 620); format: functional; details: Homo sapiens
# [10] = biological target: Heat shock protein HSP 90-alpha (Homo sapiens, UniProt P07900); assay: Luminescence-based dose response biochemical high throughput screening assay for inhibitors of the Heat Shock Protein 90 (HSP90). [Related pubchem assays: 1831 (Summary AID.), 1846 (Confirmation screen.), 1789 (Primary screen.)]
# [11] = cytotoxicity in HEK-293T cells, dose response, cytotoxicity control for BCR NF-kB inhibitor project, luminescence, B-cell screen hits (AID 489021); format: functional, cell-based;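 also: HEK-293T cells carrying an NF-kB luciferase reporter; cells exposed to compound for about 14 hours before viability readout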
# X-box-binding protein 1 = biological target: T5, X-box-binding protein 1 (Homo sapiens, UniProt P17861); format: functional, Cricetulus griseus;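 also: confirmatory dose-response counter-screen serving a CHOP assay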
# T5 sequence (P17861 whole entry): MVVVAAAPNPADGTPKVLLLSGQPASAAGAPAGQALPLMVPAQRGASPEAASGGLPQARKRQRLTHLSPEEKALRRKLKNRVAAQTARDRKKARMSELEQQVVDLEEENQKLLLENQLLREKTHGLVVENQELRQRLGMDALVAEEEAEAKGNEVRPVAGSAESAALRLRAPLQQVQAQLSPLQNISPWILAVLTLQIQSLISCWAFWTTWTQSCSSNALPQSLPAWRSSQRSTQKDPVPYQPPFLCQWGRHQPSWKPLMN
# [12] = biological target: Peroxisome proliferator-activated receptor gamma/Nuclear receptor coactivator 2 (Homo sapiens, UniProt P37231); format: functional;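 also: agonist potency for raising coactivator recruitment to the receptor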
# [13] = biological target: Peroxisome proliferator-activated receptor gamma/Nuclear receptor coactivator 1 (Homo sapiens, UniProt P37231); format: functional;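 also: agonist potency as compounds enhance coactivator SRC-1 recruitment to PPARgamma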
# [14] = biological target: Peroxisome proliferator-activated receptor gamma/Nuclear receptor coactivator 3 (Homo sapiens, UniProt P37231); format: functional;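 also: agonist potency for raising coactivator recruitment to the receptor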
# Sequence of Peroxisome proliferator-activated receptor gamma/Nuclear receptor coactivator 3 (P37231 whole entry): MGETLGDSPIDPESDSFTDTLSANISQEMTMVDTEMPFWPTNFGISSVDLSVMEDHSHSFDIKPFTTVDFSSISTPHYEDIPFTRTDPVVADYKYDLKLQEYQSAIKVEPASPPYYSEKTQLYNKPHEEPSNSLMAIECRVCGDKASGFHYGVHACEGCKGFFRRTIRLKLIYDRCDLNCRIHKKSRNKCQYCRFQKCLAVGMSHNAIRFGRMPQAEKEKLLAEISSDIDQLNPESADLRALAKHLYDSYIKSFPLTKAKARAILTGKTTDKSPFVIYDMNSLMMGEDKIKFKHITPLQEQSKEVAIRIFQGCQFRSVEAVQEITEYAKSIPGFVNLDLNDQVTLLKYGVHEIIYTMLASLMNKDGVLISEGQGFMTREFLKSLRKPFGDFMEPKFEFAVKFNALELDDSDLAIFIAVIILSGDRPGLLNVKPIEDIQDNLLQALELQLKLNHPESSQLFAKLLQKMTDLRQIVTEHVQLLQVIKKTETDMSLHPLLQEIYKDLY
# Sequence of Peroxisome proliferator-activated receptor gamma/Nuclear receptor coactivator 3 (Q9Y6Q9 whole entry, further chain): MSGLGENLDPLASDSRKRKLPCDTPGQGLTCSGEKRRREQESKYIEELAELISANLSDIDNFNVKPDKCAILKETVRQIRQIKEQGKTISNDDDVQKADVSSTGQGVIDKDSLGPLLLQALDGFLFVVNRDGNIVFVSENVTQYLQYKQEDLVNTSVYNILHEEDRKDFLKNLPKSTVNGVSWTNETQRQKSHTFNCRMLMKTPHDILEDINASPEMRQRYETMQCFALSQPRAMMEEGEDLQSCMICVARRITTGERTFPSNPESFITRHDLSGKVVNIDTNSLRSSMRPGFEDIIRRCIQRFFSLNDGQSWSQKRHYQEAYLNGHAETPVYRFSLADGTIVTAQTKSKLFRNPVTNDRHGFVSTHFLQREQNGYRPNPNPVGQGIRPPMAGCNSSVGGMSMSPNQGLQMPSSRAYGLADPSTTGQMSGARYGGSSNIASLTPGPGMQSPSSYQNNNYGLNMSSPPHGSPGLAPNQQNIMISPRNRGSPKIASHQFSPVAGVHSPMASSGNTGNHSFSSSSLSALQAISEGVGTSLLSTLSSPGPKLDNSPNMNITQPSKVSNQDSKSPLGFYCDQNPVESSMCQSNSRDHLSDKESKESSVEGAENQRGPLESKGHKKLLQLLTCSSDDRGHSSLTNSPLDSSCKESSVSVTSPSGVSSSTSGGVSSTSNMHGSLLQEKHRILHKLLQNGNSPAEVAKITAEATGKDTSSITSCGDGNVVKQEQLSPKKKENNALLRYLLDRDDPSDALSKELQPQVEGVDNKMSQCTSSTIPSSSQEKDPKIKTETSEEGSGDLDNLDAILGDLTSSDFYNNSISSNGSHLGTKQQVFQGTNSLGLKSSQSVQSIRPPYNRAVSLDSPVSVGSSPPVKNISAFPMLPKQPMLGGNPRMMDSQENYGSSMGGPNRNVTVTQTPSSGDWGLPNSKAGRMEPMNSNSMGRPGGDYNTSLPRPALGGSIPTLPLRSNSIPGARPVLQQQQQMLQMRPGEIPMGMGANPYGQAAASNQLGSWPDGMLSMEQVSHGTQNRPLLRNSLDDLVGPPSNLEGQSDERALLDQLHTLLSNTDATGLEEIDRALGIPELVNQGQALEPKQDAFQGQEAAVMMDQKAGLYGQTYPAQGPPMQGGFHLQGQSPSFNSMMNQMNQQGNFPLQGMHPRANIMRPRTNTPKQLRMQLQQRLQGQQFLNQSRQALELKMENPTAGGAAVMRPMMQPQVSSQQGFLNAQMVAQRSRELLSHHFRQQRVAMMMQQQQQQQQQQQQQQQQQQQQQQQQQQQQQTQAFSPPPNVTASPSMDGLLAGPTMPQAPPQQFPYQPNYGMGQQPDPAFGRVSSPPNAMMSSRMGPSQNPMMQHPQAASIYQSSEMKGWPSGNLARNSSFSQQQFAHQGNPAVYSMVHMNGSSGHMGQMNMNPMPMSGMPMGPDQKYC
# [15] = biological target: T6, Rac GTPase-activating protein 1 (Homo sapiens, UniProt Q9H0H5); assay: MgcRacGAP GTPase-activating activity inhibitors, confirmation, biochemical, ADP Hunter fluorescence, primary and confirmatory (AID 624330); format: functional
# T6 sequence (Q9H0H5 whole entry): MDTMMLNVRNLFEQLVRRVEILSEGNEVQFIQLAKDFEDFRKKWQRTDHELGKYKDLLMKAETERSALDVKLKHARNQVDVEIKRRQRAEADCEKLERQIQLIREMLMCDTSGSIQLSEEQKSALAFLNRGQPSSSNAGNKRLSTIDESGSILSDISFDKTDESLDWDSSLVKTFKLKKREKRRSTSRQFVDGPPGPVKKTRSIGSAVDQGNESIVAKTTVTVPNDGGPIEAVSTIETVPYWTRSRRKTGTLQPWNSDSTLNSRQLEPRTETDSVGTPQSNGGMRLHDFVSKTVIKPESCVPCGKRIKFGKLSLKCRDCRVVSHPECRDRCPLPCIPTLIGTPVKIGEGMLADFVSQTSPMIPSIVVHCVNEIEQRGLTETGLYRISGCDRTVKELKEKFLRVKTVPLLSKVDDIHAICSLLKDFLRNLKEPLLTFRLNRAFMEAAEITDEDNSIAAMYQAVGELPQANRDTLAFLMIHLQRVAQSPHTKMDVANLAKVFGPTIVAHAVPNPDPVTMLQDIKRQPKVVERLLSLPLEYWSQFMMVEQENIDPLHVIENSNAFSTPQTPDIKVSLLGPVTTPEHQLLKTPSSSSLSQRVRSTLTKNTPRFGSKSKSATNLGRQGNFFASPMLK
# [16] = biological target: T7, Oxysterols receptor LXR-beta (Homo sapiens, UniProt P55055); format: functional, cell-based;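 also: Cell-based luminescence dose-response assay of agonist activity at LXR, run as a confirmatory counterscreen to a daf-12 agonist screen; HEK293 cells with Gal4-LXR fusion and GAL4-driven luciferase reporter; agonist potency from rising luciferase signal of a Gal4-LXR reporter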
# T7 sequence (P55055 whole entry): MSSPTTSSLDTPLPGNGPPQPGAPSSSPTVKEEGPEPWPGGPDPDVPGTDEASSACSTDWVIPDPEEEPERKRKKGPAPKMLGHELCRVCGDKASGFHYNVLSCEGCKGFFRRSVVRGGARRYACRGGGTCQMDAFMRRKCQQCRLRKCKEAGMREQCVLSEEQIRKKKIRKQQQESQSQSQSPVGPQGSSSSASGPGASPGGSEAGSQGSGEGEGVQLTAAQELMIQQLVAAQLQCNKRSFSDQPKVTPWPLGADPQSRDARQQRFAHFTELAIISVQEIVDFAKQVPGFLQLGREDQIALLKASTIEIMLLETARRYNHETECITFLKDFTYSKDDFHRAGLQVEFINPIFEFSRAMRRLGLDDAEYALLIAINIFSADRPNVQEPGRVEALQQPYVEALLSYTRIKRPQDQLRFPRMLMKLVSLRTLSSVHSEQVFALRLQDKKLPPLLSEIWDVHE
# BJ [17] = assay: cytotoxicity toward BJ-TERT fibroblasts, dose response, cell-based, RAS-independent, luminescence (AID 1933); format: functional; details: Homo sapiens
# BJ [18] = assay: cells; format: functional, cell-based; details: Homo sapiens
# BJ [19] = assay: cytotoxicity toward BJ-TERT-LT-ST fibroblasts, dose response, cell-based, RAS-independent, luminescence (AID 1935); format: functional; details: Homo sapiens;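 also: BJ fibroblasts immortalized with TERT plus LT and ST oncogenes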
# [20] = cytotoxicity toward DRD oncogenic fibroblasts, dose response, cell-based, non-viral oncogenic, luminescence (AID 1934); format: functional; details: Homo sapiens
smiles,measurement,setting,value
Cc1ccc(OCCCCn2c(CO)nc3ccccc32)cc1,EC50,[1],> 50 µM (active)
COc1ccc(N2C(=O)/C(=C\Nn3cnnc3)c3ccccc3C2=O)cc1,IC50,Aspartyl aminopeptidase,1.56 µM (active)
same,IC50,Procathepsin L,> 59.6 µM (not active)
O=C(Nc1cc(Cl)ccc1Cl)Nn1cnnc1,IC50,Aspartyl aminopeptidase,0.5 µM (active)
same,IC50,Procathepsin L,> 59.6 µM (not active)
COc1ccc(/C=C/C(=O)c2ccoc2)cc1,AC50,[2],11.4 µM (active)
same,AC50,Cytochrome P450 2C19,14.1 µM (inconclusive)
same,AC50,Cytochrome P450 2D6,25.1 µM (inconclusive)
O=c1c2ccccc2[nH]c2ccc(F)cc12,EC50,[1],> 50 µM (active)
CCN(CC)c1ccc2cc(NC(=O)CCC(=O)O)c(=O)oc2c1,EC50,[3],< 0.1 µM (active)
same,EC50,[4],120 µM (inconclusive)
same,EC50,[5],> 100 µM (not active)
same,IC50,[6],> 100 µM (not active)
same,EC50,[7],3.7 µM (active)
same,EC50,[8],7.36 µM (active)
same,EC50,[9],0.491 µM (active)
same,EC50,HT-1080,> 50 µM (not active)
same,IC50,[10],> 60 µM (not active)
same,IC50,[11],> 80 µM (inactive)
FC(F)C(F)(F)C(F)(F)C(F)(F)c1cc(-c2ccccc2)[nH]n1,Absolute IC50 (XBP1),X-box-binding protein 1,10 µM
Cc1cc(S(=O)(=O)NCC2CC2)c(Cl)cc1Cl,AC50,[2],1.1 µM (active)
COC(=O)c1[nH]c2cc(OC)c(OC)cc2c1NC(=O)Oc1ccccc1,EC50,[12],90.7 µM (not active)
same,EC50,[13],97.7 µM (not active)
same,EC50,[14],> 79.4 µM (not active)
same,IC50,[15],28.8 µM (active)
O/C(=C\C=N\c1cccc(O)c1)c1ccccc1,EC50,[5],1.03 µM (active)
same,EC50,HT-1080,> 50 µM (not active)
same,EC50,[16],> 67.6 µM (inactive)
same,EC50,cells,> 67.6 µM (inactive)
CCOC(=O)c1ccc(S(=O)(=O)N2CCN(CCC#N)CC2)cc1,EC50,[1],> 50 µM (active)
COc1ccc(-c2nc3ccccc3[nH]2)cc1,EC50,BJ [17],8.49 µM (active)
same,EC50,[5],11 µM (active)
same,EC50,BJ [18],19.1 µM (active)
same,EC50,HT-1080,20.3 µM (active)
same,EC50,BJ [19],22.7 µM (active)
same,EC50,[20],9.35 µM (active)
COc1ccc(-c2ccc(OC)cc2)cc1,AC50,[2],78.8 µM (active)
S=C(Nc1cc(Cl)ccc1Cl)Nn1cnnc1,IC50,Aspartyl aminopeptidase,0.662 µM (active)
same,IC50,Procathepsin L,> 59.6 µM (not active)
